Results taken from US20140275094A1, “METHOD FOR TREATING PULMONARY ARTERIAL HYPERTENSION IN A PATIENT NOT HAVING IDIOPATHIC PULMONARY FIBROSIS” (GILEAD SCIENCES, INC., priority 2012, published 2014).

Tests used:
[1] = MGPS disproportionality analysis of FDA AERS spontaneous reports of hepatic events; design: species or system human; key to EBGM: ratio of observed to expected reports (independence assumption); conditions: for Count / EBGM: FDA AERS, 18 months post approval; for EB05: lower bound of 90% confidence interval of EBGM
Description: A disproportionality analysis was performed for ambrisentan and bosentan using information from the FDA Adverse Events Reporting System (AERS) spontaneous reporting database. […] The value of the EBGM reflects the ratio of the number of observed reports of a drug-adverse event combination with the number expected under an assumption of independence between the drugs and events in the database. […] In order to reduce the occurrence of false positives due to age group or gender influence, the safety reports were stratified by subject age group and gender. For each drug, the AERS data were analyzed for the 18-month period following the respective approval dates for ambrisentan and bosentan: 15 Jun. 2007 to 14 Dec. 2008 for ambrisentan and 21 Nov. 2001 to 20 May 2003 for bosentan. […] This threshold is generally accepted as a signal of disproportional reporting (Szarfman, et al., “Use of screening algorithms and computer systems to efficiently signal higher-than-expected combinations of drugs and events in the US FDA's spontaneous reports database.” Drug Safety 25, 381-392 (2002)). The comparator dataset in the calculations for ambrisentan and bosentan included data for all other drugs in the AERS database.

[2] = biological target: T1, human bile salt export pump (BSEP) (Homo sapiens, UniProt O95342); assay: Inhibition of hepatic transporter BSEP, Sf9 cell membrane vesicles; type: biochemical
T1 construct: expressed in transfected cells; host or cells: Sf9 cell membrane vesicles
T1 sequence (O95342 whole entry): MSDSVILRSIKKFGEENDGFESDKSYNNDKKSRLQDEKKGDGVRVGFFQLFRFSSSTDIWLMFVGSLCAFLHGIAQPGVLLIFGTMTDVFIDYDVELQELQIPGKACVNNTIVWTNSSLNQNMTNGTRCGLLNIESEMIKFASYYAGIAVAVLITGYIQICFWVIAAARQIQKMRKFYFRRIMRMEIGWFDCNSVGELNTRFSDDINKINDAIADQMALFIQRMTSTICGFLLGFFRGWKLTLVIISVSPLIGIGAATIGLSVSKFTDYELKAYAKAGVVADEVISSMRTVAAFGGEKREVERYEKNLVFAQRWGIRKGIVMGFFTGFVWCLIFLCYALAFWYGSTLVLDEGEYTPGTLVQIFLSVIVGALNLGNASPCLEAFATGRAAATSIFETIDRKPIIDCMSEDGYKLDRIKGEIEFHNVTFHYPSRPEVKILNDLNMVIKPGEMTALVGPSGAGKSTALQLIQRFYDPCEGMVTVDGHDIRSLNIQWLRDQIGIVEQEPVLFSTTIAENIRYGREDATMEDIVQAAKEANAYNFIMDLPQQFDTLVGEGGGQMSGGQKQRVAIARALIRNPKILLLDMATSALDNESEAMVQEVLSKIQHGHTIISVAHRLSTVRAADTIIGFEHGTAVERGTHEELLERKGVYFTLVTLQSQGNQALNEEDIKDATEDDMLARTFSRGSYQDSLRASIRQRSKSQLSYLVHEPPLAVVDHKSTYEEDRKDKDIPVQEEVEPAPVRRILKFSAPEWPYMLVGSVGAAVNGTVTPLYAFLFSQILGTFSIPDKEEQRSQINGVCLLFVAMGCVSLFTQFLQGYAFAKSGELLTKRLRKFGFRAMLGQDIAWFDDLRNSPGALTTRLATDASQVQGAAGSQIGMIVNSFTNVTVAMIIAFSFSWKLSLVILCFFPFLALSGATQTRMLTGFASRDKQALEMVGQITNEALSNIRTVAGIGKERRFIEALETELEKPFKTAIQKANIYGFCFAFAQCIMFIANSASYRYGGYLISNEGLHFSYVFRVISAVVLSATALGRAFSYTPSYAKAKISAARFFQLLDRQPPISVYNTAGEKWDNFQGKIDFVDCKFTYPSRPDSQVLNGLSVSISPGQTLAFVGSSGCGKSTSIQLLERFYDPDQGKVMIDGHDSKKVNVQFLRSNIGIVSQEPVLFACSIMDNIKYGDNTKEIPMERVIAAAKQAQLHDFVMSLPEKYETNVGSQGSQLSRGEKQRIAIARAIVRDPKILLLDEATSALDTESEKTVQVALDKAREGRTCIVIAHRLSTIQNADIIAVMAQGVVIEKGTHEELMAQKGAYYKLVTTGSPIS
Description: (§1) Inhibition constants (IC50) were measured for human bile salt export pump (BSEP), sodium taurocholate cotransporting polypeptide (NTCP), multidrug resistance protein 2 (MRP2), P-glycoprotein (Pgp), breast cancer resistance protein (BCRP), organic anion-transporting polypeptide 1B1 (OATP1B1), and OATP1B3 in transfected cell-lines. Known inhibitors were used as positive controls.

[3] = biological target: T2, sodium taurocholate cotransporting polypeptide (NTCP) (Homo sapiens, UniProt Q14973); assay: Inhibition of hepatic transporter NTCP, transfected CHO cells; type: cell-based
T2 construct: expressed in transfected cells; host or cells: Chinese Hamster Ovary (CHO)
T2 sequence (Q14973 1-349): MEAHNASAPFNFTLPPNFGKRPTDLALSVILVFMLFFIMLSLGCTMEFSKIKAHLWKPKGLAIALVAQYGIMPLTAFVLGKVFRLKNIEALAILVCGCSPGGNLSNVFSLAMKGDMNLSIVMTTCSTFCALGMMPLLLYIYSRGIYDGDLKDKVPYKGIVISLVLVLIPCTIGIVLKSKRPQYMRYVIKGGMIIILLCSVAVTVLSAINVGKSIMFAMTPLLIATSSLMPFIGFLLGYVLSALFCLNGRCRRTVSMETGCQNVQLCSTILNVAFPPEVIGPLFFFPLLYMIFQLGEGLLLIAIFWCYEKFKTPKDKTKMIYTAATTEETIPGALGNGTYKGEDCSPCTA
Description: as §1

[4] = biological target: T3, organic anion-transporting polypeptide 1B1 (OATP1B1) (Homo sapiens, UniProt Q9Y6L6); assay: Inhibition of OATP1B1, transfected CHO cells; type: cell-based
T3 construct: expressed in transfected cells; host or cells: CHO
T3 sequence (Q9Y6L6 1-691): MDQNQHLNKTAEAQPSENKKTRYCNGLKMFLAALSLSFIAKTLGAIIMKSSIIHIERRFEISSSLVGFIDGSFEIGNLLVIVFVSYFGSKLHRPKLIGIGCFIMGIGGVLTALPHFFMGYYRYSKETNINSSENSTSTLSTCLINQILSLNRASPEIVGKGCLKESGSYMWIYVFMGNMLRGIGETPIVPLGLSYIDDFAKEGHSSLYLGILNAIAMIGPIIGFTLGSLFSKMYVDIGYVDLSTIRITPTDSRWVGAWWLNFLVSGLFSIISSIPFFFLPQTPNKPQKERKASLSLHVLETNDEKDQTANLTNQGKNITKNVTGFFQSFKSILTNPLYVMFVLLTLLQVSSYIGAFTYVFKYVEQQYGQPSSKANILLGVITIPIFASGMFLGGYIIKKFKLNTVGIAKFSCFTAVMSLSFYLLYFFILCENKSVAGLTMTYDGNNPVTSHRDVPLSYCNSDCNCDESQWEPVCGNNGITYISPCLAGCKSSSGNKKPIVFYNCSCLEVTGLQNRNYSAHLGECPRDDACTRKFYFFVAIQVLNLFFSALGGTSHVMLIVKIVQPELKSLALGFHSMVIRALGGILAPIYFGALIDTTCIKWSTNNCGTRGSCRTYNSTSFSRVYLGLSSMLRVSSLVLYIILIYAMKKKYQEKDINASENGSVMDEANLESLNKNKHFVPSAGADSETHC
Description: as §1

human hepatocytes = conditions: cited from earlier work
[5] = Blood alkaline phosphate increased
[6] = Blood bilirubin unconjugated increased

In the case of `COC(c1ccccc1)(c1ccccc1)[C@H](Oc1nc(C)cc(C)n1)C(=O)O` [Ambrisentan, (25)-2-[(4,6-dimethylpyrimidin-2-yl)oxy]-3-methoxy-3,3-diphenylpropanoic acid], the Count ([1]; ALT increased) is reported as 3, the EBGM ([1]; ALT increased) is reported as 1.55 and the Count ([1]; AST increased) is reported as 3. It also gave an EBGM ([1]; AST increased) of 1.63, a Count ([1]; Ascites) of 2 and an EBGM ([1]; Ascites) of 1.80. It also gave a Count ([1]; Bilirubin conjugated increased) of 0, a Count [1, 5] of 1 and an EBGM [1, 5] of 0.86. It also gave a Count ([1]; Blood bilirubin increased) of 0, a Count [1, 6] of 0 and a Count ([1]; Hepatic congestion) of 0. For the same compound, the Count ([1]; Hepatic encephalopathy) was 0, the Count ([1]; Hepatic enzyme increased) was 3 and the EBGM ([1]; Hepatic enzyme increased) was 1.67. For the same compound, the Count ([1]; Hepatic failure) was 0, the Count ([1]; Hepatic function abnormal) was 0 and the Count ([1]; Hepatic infarction) was 0. The Count ([1]; Hepatic necrosis) was 0, the Count ([1]; Hepatic steatosis) was 1 and the EBGM ([1]; Hepatic steatosis) was 1.06. For the same compound, the Count ([1]; Hepatitis acute) was 0, the Count ([1]; Hepatitis) was 1 and the EBGM ([1]; Hepatitis) was 0.89. It also gave a Count ([1]; Hepatomegaly) of 0, a Count ([1]; Hepatosplenomegaly) of 0 and a Count ([1]; INR increased) of 1. The EBGM ([1]; INR increased) was 0.78, the Count ([1]; Liver disorder) was 2 and the EBGM ([1]; Liver disorder) was 1.43. The Count ([1]; Liver function test abnormal) was 10, the EBGM ([1]; Liver function test abnormal) was 6.11 and the Count ([1]; Prothrombin time prolonged) was 1. For the same compound, the EBGM ([1]; Prothrombin time prolonged) was 1.29, the Count ([1]; Spider naevus) was 0 and the Count ([1]; Transaminases increased) was 2. For the same compound, the EBGM ([1]; Transaminases increased) was 1.96, the EB05 ([1]; liver function test abnormal) was 3.5 and the “effect on BSEP” value [2] was “no measurable effect”. For the same compound, the “effect on NTCP” value [3] was “no measurable effect”, the IC50 [4] was 47 ± 21.3 µM and the “effect on hepatobiliary transporter activity” value (human hepatocytes) was “less potent”.
`COc1ccccc1Oc1c(NS(=O)(=O)c2ccc(C(C)(C)C)cc2)nc(-c2ncccn2)nc1OCCO` [Bosentan] showed a Count ([1]; ALT increased) of 57, an EBGM ([1]; ALT increased) of 11.57 and a Count ([1]; AST increased) of 60. The EBGM ([1]; AST increased) was 12.52, the Count ([1]; Ascites) was 8 and the EBGM ([1]; Ascites) was 3.60. The Count ([1]; Bilirubin conjugated increased) was 5, the EBGM ([1]; Bilirubin conjugated increased) was 13.91 and the Count [1, 5] was 46. The EBGM [1, 5] was 18.79, the Count ([1]; Blood bilirubin increased) was 37 and the EBGM ([1]; Blood bilirubin increased) was 18.75. The Count [1, 6] was 2, the EBGM [1, 6] was 3.28 and the Count ([1]; Hepatic congestion) was 5. It also gave an EBGM ([1]; Hepatic congestion) of 13.18, a Count ([1]; Hepatic encephalopathy) of 1 and an EBGM ([1]; Hepatic encephalopathy) of 1.00. For the same compound, the Count ([1]; Hepatic enzyme increased) was 0, the Count ([1]; Hepatic failure) was 3 and the EBGM ([1]; Hepatic failure) was 1.07. For the same compound, the Count ([1]; Hepatic function abnormal) was 2, the EBGM ([1]; Hepatic function abnormal) was 0.91 and the Count ([1]; Hepatic infarction) was 1. The EBGM ([1]; Hepatic infarction) was 1.44, the Count ([1]; Hepatic necrosis) was 1 and the EBGM ([1]; Hepatic necrosis) was 0.94. For the same compound, the Count ([1]; Hepatic steatosis) was 0, the Count ([1]; Hepatitis acute) was 1 and the EBGM ([1]; Hepatitis acute) was 1.04. It also gave a Count ([1]; Hepatitis) of 5, an EBGM ([1]; Hepatitis) of 1.63 and a Count ([1]; Hepatomegaly) of 1. It also gave an EBGM ([1]; Hepatomegaly) of 0.79, a Count ([1]; Hepatosplenomegaly) of 2 and an EBGM ([1]; Hepatosplenomegaly) of 2.09. For the same compound, the Count ([1]; INR increased) was 9, the EBGM ([1]; INR increased) was 3.08 and the Count ([1]; Liver disorder) was 1. The EBGM ([1]; Liver disorder) was 0.56, the Count ([1]; Liver function test abnormal) was 38 and the EBGM ([1]; Liver function test abnormal) was 9.59. The Count ([1]; Prothrombin time prolonged) was 2, the EBGM ([1]; Prothrombin time prolonged) was 1.22 and the Count ([1]; Spider naevus) was 1. It also gave an EBGM ([1]; Spider naevus) of 1.46, a Count ([1]; Transaminases increased) of 5 and an EBGM ([1]; Transaminases increased) of 3.58. For the same compound, the EB05 ([1]; blood alkaline phosphate increased) was 14.6, the EB05 ([1]; liver function test abnormal) was 6.9 and the “effect on BSEP” value [2] was “inhibition was observed”. For the same compound, the IC50 ([2]; BSEP) was 54.4 µM, the “effect on NTCP” value [3] was “inhibition was observed” and the IC50 ([3]; NTCP) was 36.5 µM. The IC50 [4] was 5 ± 2 µM and the “effect on hepatobiliary transporter activity” value (human hepatocytes) was “decreased transporter activity to the greatest extent”.
